Experimental data: patent US20190053489A1, “ANTIMICROBIAL COMPOSITION” (NATIONAL UNIVERSITY CORPORATION TOKYO MEDICAL AND DENTAL …, priority 2016, published 2019)

How the values were obtained:
MRSA IID 1677 = test: Proliferation suppression against MRSA in a standard medium (colony count method); format: cell-based, Methicillin-Resistant Staphylococcus Aureus (MRSA)
Procedure: This test employed MRSA IID 1677, and this microbe strain was inoculated in 20 ml of a normal broth medium (manufactured by Eiken Chemical Co., Ltd., ‘Eiken’) for overnight shake culture at 37° C. The cultured microbial solution was collected by centrifugation (3000 rpm, 10 minutes), suspended with sterilized water, and then diluted with sterilized water so that the optical density would satisfy OD600=1.0. The resultant was diluted 2000 times (corresponding to 10^6 CFU/ml) to prepare a reaction microbial solution.
Here, the TSB test medium samples were prepared using 10 ml of TSB medium (BD BBL™) added with 200 μl of 1 M phosphate buffer (pH 7.0), followed by further addition of
(1) 10 ml of sterilized water, ([…]), (3) 10 ml of lysozyme alone with a concentration of 0.2% (the concentration after addition was 0.1%), (4) 10 ml of chitosan alone with a concentration of 0.2% (the concentration after addition was 0.1%), and (5) 10 ml of the mixture of lysozyme and chitosan with a concentration of 0.2% (the concentration of each after addition was 0.1%).
After that, 100 μl was extracted and seeded on the MH agar medium, and the number of colonies produced was observed (colony count method). […] Note that the results of FIG. 7 are each the average value of the values obtained by carrying out the colony count method three times.
Note that the results of FIG. 8 are each the average value obtained with two replicate samples.

[1] = test system: Pseudomonas aeruginosa PAO 1; test: Proliferation suppression against pseudomonas aeruginosa PAO 1 in a standard medium (colony count method); format: cell-based; settings: standard TSB medium; colony count 6 hours later; complex 0.2%, others 0.1%; FIG. 10
Source text: This test employed Pseudomonas aeruginosa NBRC 13275 or PAO 1, and other procedures were the same as those of [Example 5] described earlier.
Note that the results of FIG. 9 are each the average value of the values obtained by carrying out the colony count method three times and that the results of FIG. 10 are each the average value of the values obtained by carrying out the colony count method five times.

lysozyme-chitosan complex: complex of lysozyme and water-soluble chitosan (molecular weight 14000 Da) bound to each other through the Maillard reaction
proliferation suppression effect against MRSA (ratio of colonies produced 6 hours later to control) (MRSA IID 1677; standard TSB medium with phosphate buffer pH 7.0, complex 0.2%, lysozyme, chitosan, each of mixture 0.1%, FIG. 7): marked improvement effect compared to chitosan alone and the mixture of lysozyme and chitosan
proliferation suppression effect against MRSA 9 hours later (MRSA IID 1677; standard TSB medium, any of the complex concentrations 0.01%, 0.05%, 0.1%, 0.2%, FIG. 8): sufficient proliferation suppression effect
ratio of the number of MRSA colonies produced to the control (MRSA IID 1677; standard TSB medium, complex 0.2%, past 6 hours, FIG. 8): ~0%
proliferation suppression effect against PAO 1 [1]: marked improvement effect compared to lysozyme alone, chitosan alone, and the mixture of lysozyme and chitosan
